Assay results from US20050261264A1, “Rare-earth ternary complex” (priority 2000, published 2005).

Key:
Type in all cases: physicochemical
[1] = Miscibility with solvents, visual evaluation at 5 wt %; design: key: ⊚: dissolves at room temperature; ◯: dissolves when heated for 5 minutes at 40° C.; Δ: dissolves under heating, but cooling precipitates crystals; X: does not dissolve; settings: complex added at 5 wt %
Method: (§1) The miscibility of the rare earth complex with various media was evaluated as follows.
1) Miscibility with Solvents

[2] = Miscibility with a polymer matrix, visual evaluation; design: key to Miscibility, PMMA: ⊚: dissolves up to 30 wt %; ◯: dissolves up to 5 wt %; Δ: disperses up to 5 wt %, but there is turbidity; X: repelled at the polymer surface
Method: as §1
2) Miscibility with a Polymer Matrix
The rare earth complex serving as the sample was added in the concentrations listed with the evaluation criteria below relative to various media, and the miscibility was visually evaluated according to the following criteria. • ⊚: dissolves up to 30 wt % • ◯: dissolves up to 5 wt % • Δ: disperses up to 5 wt %, but there is turbidity • X: repelled at the polymer surface

[3] = Number of moles of bound water per mole of complex (TG-DTA); settings: for Bound water (number of moles of bound water per mole of complex): Table 1, dried samples for the ternary complexes
Method: The number of moles of bound water per mole of complex was measured using a TG-DTA 2000 from MAC Science.
A 20 g quantity of Eu(PMS)3 was added to 100 mL of isopropanol, then 43 g ([…] the molar amount of the Eu(PMS)3) of triphenylphosphine oxide (hereinafter referred to as TPPO) was added, and the system was refluxed for 3 hours, and then gradually cooled. The resulting white powder was filtered off. The white powder thus obtained was washed with hot n-hexane, and recrystallized with water-methanol to obtain 44 g of Eu(PMS)3(TPPO)8 in the form of white acicular crystals (yield: 85%). The TG-DTA was measured for these crystals, and it was found from the weight reduction at 100° C. that the number of moles of bound water per mole of complex was 2.93. The IR, NMR, UV absorption characteristics, and elemental analysis results for the obtained Eu(PMS)3(TPPO)8(H2O)2.93 are given below.
Eu(PMS)3(TPPO)8(H2O)2.93 obtained by the above synthesis method was dried in vacuo for 3 hours at 140° C. and a reduced pressure of […]. TG-DTA measurement for the resulting white powder was carried out to obtain a weight reduction at 100° C. It was found from the obtained value that the number of moles of bound water per mole of complex was 0.18.

| SMILES | Miscibility, Acetone [1] | Miscibility, Chloroform [1] | Miscibility, Toluene [1] | Miscibility, Water [1] | Miscibility, Epoxy resin [2] | Miscibility, Nafion [2] | Miscibility, PMMA [2] | Bound water (number of moles of bound water per mole of complex) [3] | Number of moles of bound water per mole of complex ([3]; after drying in vacuo at 140° C.) |
| --- | --- | --- | --- | --- | --- | --- | --- | --- | --- |
| O=P(c1ccccc1)(c1ccccc1)c1ccccc1.O=P(c1ccccc1)(c1ccccc1)c1ccccc1.O=P(c1ccccc1)(c1ccccc1)c1ccccc1.O=P(c1ccccc1)(c1ccccc1)c1ccccc1.O=P(c1ccccc1)(c1ccccc1)c1ccccc1.O=P(c1ccccc1)(c1ccccc1)c1ccccc1.O=P(c1ccccc1)(c1ccccc1)c1ccccc1.O=P(c1ccccc1)(c1ccccc1)c1ccccc1.O=S(=O)([N-]S(=O)(=O)C(F)(F)C(F)(F)F)C(F)(F)C(F)(F)F.O=S(=O)([N-]S(=O)(=O)C(F)(F)C(F)(F)F)C(F)(F)C(F)(F)F.O=S(=O)([N-]S(=O)(=O)C(F)(F)C(F)(F)F)C(F)(F)C(F)(F)F.[Eu+3] [Eu(PES)3(TPPO)8] | ⊚ | ⊚ | ◯ | X | ◯ (dissolves up to 5 wt %) | ◯ (dissolves up to 5 wt %) | ◯ (dissolves up to 5 wt %) | 0.19 | 0.19 |
| O=C(C=C([O-])C(F)(F)F)C(F)(F)F.O=C(C=C([O-])C(F)(F)F)C(F)(F)F.O=C(C=C([O-])C(F)(F)F)C(F)(F)F.O=P(c1ccccc1)(c1ccccc1)c1ccccc1.O=P(c1ccccc1)(c1ccccc1)c1ccccc1.[Nd+3] [Nd(HFA)3(TPPO)2, reference compound] | ⊚ | ◯ | ◯ | X | ◯ (dissolves up to 5 wt %) | Δ (disperses up to 5 wt %, but there is turbidity) | Δ (disperses up to 5 wt %, but there is turbidity) | 0.00 |  |
| O=C(C=C([O-])C(F)(F)F)C(F)(F)F.O=C(C=C([O-])C(F)(F)F)C(F)(F)F.O=C(C=C([O-])C(F)(F)F)C(F)(F)F.[Nd+3] [Nd(HFA)3, reference compound] | ⊚ | X | X | X | ◯ (dissolves up to 5 wt %) | Δ (disperses up to 5 wt %, but there is turbidity) | X | 2.00 |  |
| O=S(=O)([N-]S(=O)(=O)C(F)(F)F)C(F)(F)F.O=S(=O)([N-]S(=O)(=O)C(F)(F)F)C(F)(F)F.O=S(=O)([N-]S(=O)(=O)C(F)(F)F)C(F)(F)F.[Nd+3].c1cnc2c(c1)ccc1cccnc12.c1cnc2c(c1)ccc1cccnc12.c1cnc2c(c1)ccc1cccnc12.c1cnc2c(c1)ccc1cccnc12 [Nd(PMS)3(Phen)m] | ⊚ | Δ | Δ | X | ◯ (dissolves up to 5 wt %) | ◯ (dissolves up to 5 wt %) | ◯ (dissolves up to 5 wt %) | 0.00 |  |
| O=S(=O)([N-]S(=O)(=O)C(F)(F)F)C(F)(F)F.O=S(=O)([N-]S(=O)(=O)C(F)(F)F)C(F)(F)F.O=S(=O)([N-]S(=O)(=O)C(F)(F)F)C(F)(F)F.O=S(c1ccccc1)c1ccccc1.O=S(c1ccccc1)c1ccccc1.O=S(c1ccccc1)c1ccccc1.O=S(c1ccccc1)c1ccccc1.O=S(c1ccccc1)c1ccccc1.O=S(c1ccccc1)c1ccccc1.O=S(c1ccccc1)c1ccccc1.O=S(c1ccccc1)c1ccccc1.[Tb+3] [Tb(PMS)3(DPSO)8] | ⊚ | ◯ | ◯ | X | ◯ (dissolves up to 5 wt %) | ◯ (dissolves up to 5 wt %) | ◯ (dissolves up to 5 wt %) | 0.00 |  |
